Measured values published in patent US20250282776A1, “Bicyclic TLR7 Agonists and Uses Thereof” (Bristol-Myers Squibb Company, priority 2024, published 2025).

Key:
human TLR7 (hTLR7) = molecular target: T1, human TLR7 (hTLR7) (Homo sapiens, UniProt Q9NYK1); assay: Human TLR7 agonist activity assay (HEK-Blue TLR7 SEAP reporter); assay type: cell-based; details: HEK-Blue TLR7 cells, 18 h incubation, Quanti-Blue, OD 620 nm, some values average of multiple measurements
T1 construct: host or cells: HEK-Blue TLR7 cells (engineered human embryonic kidney cells)
T1 sequence (Q9NYK1 27-1049): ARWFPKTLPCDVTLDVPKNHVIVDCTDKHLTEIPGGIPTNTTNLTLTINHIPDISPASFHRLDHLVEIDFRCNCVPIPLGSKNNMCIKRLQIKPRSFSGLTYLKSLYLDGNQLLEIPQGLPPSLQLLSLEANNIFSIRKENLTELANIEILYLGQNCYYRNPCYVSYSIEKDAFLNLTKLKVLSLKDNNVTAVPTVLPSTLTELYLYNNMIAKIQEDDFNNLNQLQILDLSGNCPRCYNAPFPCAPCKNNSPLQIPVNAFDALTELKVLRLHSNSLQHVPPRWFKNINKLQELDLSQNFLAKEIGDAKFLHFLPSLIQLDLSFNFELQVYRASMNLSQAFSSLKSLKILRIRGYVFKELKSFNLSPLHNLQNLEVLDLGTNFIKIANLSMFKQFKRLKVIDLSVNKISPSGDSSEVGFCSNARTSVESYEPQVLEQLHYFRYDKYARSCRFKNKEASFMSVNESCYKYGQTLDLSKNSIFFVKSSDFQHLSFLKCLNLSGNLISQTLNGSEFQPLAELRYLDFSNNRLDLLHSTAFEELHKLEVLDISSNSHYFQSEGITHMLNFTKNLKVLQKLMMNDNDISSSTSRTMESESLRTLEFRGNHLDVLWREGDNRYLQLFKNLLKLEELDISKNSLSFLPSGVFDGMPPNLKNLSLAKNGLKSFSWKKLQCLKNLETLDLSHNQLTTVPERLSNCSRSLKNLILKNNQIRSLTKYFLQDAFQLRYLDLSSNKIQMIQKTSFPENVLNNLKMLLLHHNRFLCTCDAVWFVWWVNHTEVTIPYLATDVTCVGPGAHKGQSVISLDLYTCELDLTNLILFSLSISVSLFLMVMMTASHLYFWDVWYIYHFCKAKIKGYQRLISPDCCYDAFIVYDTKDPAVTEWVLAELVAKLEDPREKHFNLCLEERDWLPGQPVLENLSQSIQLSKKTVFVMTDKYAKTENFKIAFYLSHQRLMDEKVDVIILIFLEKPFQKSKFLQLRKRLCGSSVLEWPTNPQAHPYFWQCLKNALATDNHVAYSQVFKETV
Method in brief: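 HEK-Blue TLR7 cells seeded 16-18 h, then exposed to compound for 18 h at 37 °C, 5% CO2. Secreted SEAP read with Quanti-Blue at OD 620 nm after 30 min. EC50 taken as concentration giving half-maximal response between baseline and maximum; some values averaged over repeats.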

human TLR8 (hTLR8) = molecular target: T2, human TLR8 (hTLR8) (Homo sapiens, UniProt Q9NR97); assay: Human TLR8 agonist activity assay (measured in a similar manner); assay type: cell-based; details: HEK-Blue TLR cells, SEAP reporter, measured in a similar manner to TLR7; some values average of multiple measurements
T2 construct: expressed in transfected cells
T2 sequence (Q9NR97 27-1041): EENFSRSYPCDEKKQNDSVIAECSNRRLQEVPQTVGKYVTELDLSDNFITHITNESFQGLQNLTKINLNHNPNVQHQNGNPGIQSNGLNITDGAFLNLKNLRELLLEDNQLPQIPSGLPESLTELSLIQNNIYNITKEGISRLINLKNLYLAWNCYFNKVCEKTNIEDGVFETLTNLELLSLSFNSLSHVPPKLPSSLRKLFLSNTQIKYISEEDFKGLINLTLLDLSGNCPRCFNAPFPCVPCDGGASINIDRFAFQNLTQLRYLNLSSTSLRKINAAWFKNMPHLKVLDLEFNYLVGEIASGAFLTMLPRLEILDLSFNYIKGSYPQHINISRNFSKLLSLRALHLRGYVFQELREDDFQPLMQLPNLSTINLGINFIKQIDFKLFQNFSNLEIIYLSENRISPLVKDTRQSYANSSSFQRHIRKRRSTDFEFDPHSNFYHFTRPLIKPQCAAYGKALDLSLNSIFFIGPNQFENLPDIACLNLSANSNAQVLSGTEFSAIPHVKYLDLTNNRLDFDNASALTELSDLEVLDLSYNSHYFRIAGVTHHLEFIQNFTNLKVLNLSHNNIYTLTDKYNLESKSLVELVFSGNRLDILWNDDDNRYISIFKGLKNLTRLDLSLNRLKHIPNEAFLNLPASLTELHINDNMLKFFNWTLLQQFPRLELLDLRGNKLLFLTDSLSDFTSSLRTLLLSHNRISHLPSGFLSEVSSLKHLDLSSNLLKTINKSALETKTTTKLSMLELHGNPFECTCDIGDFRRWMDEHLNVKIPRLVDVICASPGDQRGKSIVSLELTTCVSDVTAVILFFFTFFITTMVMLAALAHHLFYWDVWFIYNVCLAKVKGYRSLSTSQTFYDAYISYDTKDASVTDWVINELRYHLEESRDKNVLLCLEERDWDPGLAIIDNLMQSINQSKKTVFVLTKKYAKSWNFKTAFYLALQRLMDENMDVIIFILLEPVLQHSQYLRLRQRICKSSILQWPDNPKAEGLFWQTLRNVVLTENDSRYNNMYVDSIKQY
Method in brief: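 Compounds were added to HEK-Blue TLR8 reporter cells, pre-incubated 16-18 h, then treated 18 h at 37° C, 5% CO2. SEAP output was measured with Quanti-Blue (30 min) at OD 620 nm. Some values are averages of multiple measurements.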

Row | SMILES | EC50 (human TLR7 (hTLR7)) [nM] | EC50 (human TLR8 (hTLR8)) [nM]
1 | CCCCN(CCO)c1nc(N)nc2cn(Cc3c(OC)cc(CNC4CCOCC4)cc3OC)nc12 [Compound 144] | 1870 | 2060
2 | CCCCN(CCO)c1nc(N)nc2cn(Cc3c(OC)cc(CN[C@@H]4CCOC4)cc3OC)nc12 [Compound 145] | 1440 | 2020
3 | CCCCN(CCO)c1nc(N)nc2cn(Cc3c(OC)cc(CNC(C)C)cc3OC)nc12 [Compound 146] | 1820 | 1770
4 | CCCCN(CCO)c1nc(N)nc2cn(Cc3c(F)cc(C4=CCNC4)cc3OC)nc12 [Compound 147] | 1810 | 2020
5 | CCCCN(CCO)c1nc(N)nc2cn(Cc3ccc(CNC(C)(C)C)c4c3OCCC4)nc12 [Compound 148] | 1840 | 462
6 | CCCCN(CCO)c1nc(N)nc2cn(Cc3c(F)cc(C4CCN(CCOC)CC4)cc3C#N)nc12 [Compound 149] | 561 | 1810
7 | CCCCN(CCO)c1nc(N)nc2cn(Cc3c(F)cc(C4CCN(C5CCOCC5)CC4)cc3C#N)nc12 [Compound 150] | 1130 | 2100
8 | CCCCN(CCO)c1nc(N)nc2cn(Cc3c(F)cc(C4CCN(C(C)C)CC4)cc3C#N)nc12 [Compound 151] | 612 | 1830
9 | CCCCN(CCO)c1nc(N)nc2cn(Cc3c(F)cc(N4CCC(NC(C)C)CC4)cc3OC)nc12 [Compound 152] | 749 | 1830
10 | CCCCN(CCO)c1nc(N)nc2cn(Cc3ccc(CNC4CCOC4(C)C)cc3OC)nc12 (stereo not shown) [Compound 153] | 615 | 306
11 | CCCCN(CCO)c1nc(N)nc2cn(Cc3ccc(CNC4(CO)CCOCC4)cc3OC)nc12 [Compound 154] | 2140 | 1100
12 | CCCCN(CCO)c1nc(N)nc2cn(Cc3ccc(CCNC4CCOCC4)cc3OC)nc12 [Compound 156] | 1550 | 2170
13 | CCCCN(CCO)c1nc(N)nc2cn(Cc3ccc(CN[C@@H]4CCOC4)cc3)nc12 [Compound 157] | 1160 | 460
14 | CCCCN(CCO)c1nc(N)nc2cn(Cc3ccc(CNC4CCOCC4)cc3)nc12 [Compound 158] | 1160 | 389
15 | CCCCN(CCO)c1nc(N)nc2cn(Cc3ccc(CNCCOC)cc3)nc12 [Compound 161] | 658 | 506
16 | CCCCN(CCO)c1nc(N)nc2cn(Cc3ccc(CNC(C)C)cc3)nc12 [Compound 162] | 1570 | 805
17 | CCCCN(c1nc(N)nc2cn(Cc3c(F)cc(C4CCN(C5CC6(COC6)C5)CC4)cc3OC)nc12)C(C)CO (stereo not shown) [Compound 164] | 196 | 614
18 | CCCCN(CCO)c1nc(N)nc2cn(Cc3ccc(CNC4C[C@@H](C)O[C@@H](C)C4)cc3OC)nc12 (stereo partly shown) [Compound 166] | 694 | 529

Row | SMILES | EC50 (human TLR7 (hTLR7)) [nM] | EC50 (human TLR8 (hTLR8)) [nM]
19 | CCCCN(CCO)c1nc(N)nc2cn(Cc3ccc(CN[C@H]4CCCN(C)C4)c4cccnc34)nc12 [Compound 168] | 587 | 1100
20 | CCCCN(CCO)c1nc(N)nc2cn(Cc3ccc(CN[C@H]4CC[C@H](O)CC4)c4cccnc34)nc12 [Compound 169] | 1090 | 628
21 | COc1cc(CN[C@H]2C[C@H](OC)C2)ccc1Cn1cc2nc(N)nc(N(CCO)CCCCF)c2n1 [Compound 170] | 1800 | 2500
22 | CCCCN(CCO)c1nc(N)nc2cn(Cc3ccc(CNC4CCOCC4)n4ncnc34)nc12 [Compound 171] | 1700 | 1900
23 | CCCCN(CCO)c1nc(N)nc2cn(Cc3ccc(CN[C@@H]4CCOC4)n4ncnc34)nc12 [Compound 172] | 870 | 1350
24 | COc1cc(CN[C@@H]2CCOC2)ccc1Cn1cc2nc(N)nc(N(CCO)CCCCF)c2n1 [Compound 173] | 2630 | 3130
25 | CCCCN(CCO)c1nc(N)nc2cn(Cc3ccc(CN[C@H]4C[C@H](OC)C4)n4ncnc34)nc12 [Compound 174] | 757 | 1450
26 | CCCCN(CCO)c1nc(N)nc2cn(Cc3ccc(CNC4CCC4)n4ncnc34)nc12 [Compound 175, 2-((5-Amino-2-((5-((cyclobutylamino)methyl)-[1,2,4]triazolo[1,5-a]pyridin-8-yl)methyl)-2H-pyrazolo[4,3-d]pyrimidin-7-yl)(butyl)amino)ethan-1-ol] | 307 | 328
27 | COc1cc(CNC2CCC2)ccc1Cn1cc2nc(N)nc(N(CCO)CCCCF)c2n1 [Compound 176] | 1640 | 1950
28 | CCCCN(CCO)c1nc(N)nc2cn(Cc3ccc(CO)n4ncnc34)nc12 [Compound 177] | 949 | 1460
29 | CCCCN(c1nc(N)nc2cn(Cc3c(F)cc(C4CCN(C5CC6(COC6)C5)CC4)cc3OC)nc12)C(C)CO (stereo not shown) [Compound 179] | 121 | 213
30 | CCCCN(CCO)c1nc(N)nc2cn(Cc3ccc(CNC4CCOCC4)c4scnc34)nc12 [Compound 180, 2-((5-Amino-2-((7-(((tetrahydro-2H-pyran-4-yl)amino)methyl)benzo[d]thiazol-4-yl)methyl)-2H-pyrazolo[4,3-d]pyrimidin-7-yl)(butyl)amino)ethan-1-ol] | 294 | 230
31 | CCCCN(CCO)c1nc(N)nc2cn(Cc3ncc(CNC4CCC4)cc3OC)nc12 [Compound 182] | 865 | 1770
32 | CCCCN(CCO)c1nc(N)nc2cn(Cc3ccc(CNC4CCC4)c4scnc34)nc12 [Compound 184] | 401 | 310
33 | CCCCN(CCO)c1nc(N)nc2cn(Cc3ccc(CN[C@@H]4CCCN(C(=O)OC)C4)c4cccnc34)nc12 [Compound 185, Methyl (R)-3-(((8-((5-amino-7-(butyl(2-hydroxyethyl)amino)-2H-pyrazolo[4,3-d]pyrimidin-2-yl)methyl)quinolin-5-yl)methyl)amino) piperidine-1-carboxylate] | 499 | 508
34 | CCCCN(CCO)c1nc(N)nc2cn(Cc3ccc(CN[C@@H]4CCCN(C(C)=O)C4)c4cccnc34)nc12 [Compound 186] | 1690 | 3490
35 | CCCCN(CCO)c1nc(N)nc2cn(Cc3ccc(CN[C@@H]4CCOC4)n4ccnc34)nc12 [Compound 187, (R)-2-((5-Amino-2-((5-(((tetrahydrofuran-3-yl)amino)methyl)imidazo[1,2-a]pyridin-8-yl)methyl)-2H-pyrazolo[4,3-d]pyrimidin-7-yl)(butyl)amino) ethan-1-ol] | 674 | 860
